Source: patent publication US8304447B2, “2-acylaminopropoanol-type glucosylceramide synthase inhibitors” (Genzyme Corporation, priority 2007, dated 2012)

What follows are compounds tested on GM3 (assay: GM3 Elisa assay). Settings: 48 h, Table 1; B16-FO cells, 2 days incubation; read-out: IC50_uM_Mean.
Assay type: cell-based
Description: B16-FO cells from ATCC (American Tissue Culture Collection) were grown in DMEM media (ATCC) with 10% Fetal Bovine Serum (Hyclone) and Pen/Step/Glutamine (Biowhittaker). 4000 cells per well were plated on collagen coated plates (BD) and allowed to attach for 6 hours in an incubator (37 degrees, 5% CO2). After 6 hours the compounds and controls were added to the wells, the plates mixed and returned to the incubator for 2 days. Day of assay the cells were fixed for 20 minutes with 1% formaldehyde and then washed with Tris Buffered Saline (TBS) 3 times, 150 μl of TBS was left in the wells and 50 μl of goat serum (Invitrogen) was added, the plates mixed and incubated for 1 hour at room temperature. The plates were flicked and the cells incubated with the monoclonal Antibody to GM3 (NeuAc) (Cosmo) for 45 minutes as room temperature. The plates were then washed 3 times with TBS, leaving 150 μl of TBS in the wells and Peroxidase AffinPure F (ab′) 2 frag Gt Anti-mouse IgM, μ Chain Specific (Jackson Immuno Research) was added in 50 μl, the plates mixed and incubated for 45 minutes at room temperature. The plates were washed 3 times with TBS, flicked and blotted and 100 μl of Quantablu (Pierce) was added to the wells and incubated for 1 hour then read on a Fluorometer at Ex 325 and Em 420. The data was then analyzed using standard programs.

IC50 [nM]	Structure (SMILES)
≤ 100	COc1cccc(OCCC(=O)N[C@H](CN2CCCC2)[C@H](O)c2ccc3c(c2)OCCO3)c1 [Compound 54, N-((1R,2R)-1-(2,3-dihydrobenzo[β][1,4]dioxin-6-yl)-1-hydroxy-3-(pyrrolidin-1-yl)propan-2-yl)-3-(3-methoxyphenoxy)propanamide]
100 to 1000	O=C(Cc1ccc(Oc2ccccc2)cc1)N[C@H](CN1CCCC1)[C@H](O)c1ccc2c(c1)OCCO2 [Compound 24, N-((1R,2R)-1-(2,3-dihydrobenzo[β][1,4]dioxin-6-yl)-1-hydroxy-3-(pyrrolidin-1-yl)propan-2-yl)-2-(4-phenoxyphenyl)acetamide]

Same assay, conditions: Table 3 (IC 50 Values); B16-FO cells; read-out: IC50_uM_Mean

Structure (SMILES)	IC50 [nM]
COc1ccc(C(=O)CCCCC(=O)N[C@H](CN2CCCC2)[C@H](O)c2ccc(C)c(F)c2)cc1 [Compound 351]	100 to 1000
CCCCCCCC(=O)N[C@H](CN1CC[C@H](O)C1)[C@H](O)c1ccc2c(c1)OCCO2 [Compound 515]	≤ 100
COc1ccc(OCCC(=O)N[C@H](CN2CCCC2)[C@H](O)c2ccc(C(F)(F)F)cc2)cc1 [Compound 489]	3000 to 10000
COc1ccc(OCCC(=O)N[C@H](CN2CCCC2)[C@@H](O)c2ccc3c(c2)OCCO3)cc1 [Compound 676]	3000 to 10000
COc1ccc(C(=O)CCCCCC(=O)N[C@H](CN2CCCC2)[C@H](O)/C=C/c2ccccc2)cc1 [Compound 394]	1000 to 3000
COc1ccc(CCOc2ccc([C@@H](O)[C@@H](CN3CCCC3)NC(=O)CCCCC(=O)c3ccc(OC)cc3)cc2)cc1 [Compound 440]	≤ 100
COc1ccc(C(=O)CCC(=O)CCC(=O)N[C@H](CN2CCCC2)[C@H](O)c2ccc3c(c2)OCCO3)cc1 [Compound 378]	≤ 100
O=C(Cc1ccc(OC(F)(F)F)cc1)N[C@H](CN1CCCC1)[C@H](O)c1ccc(Cl)cc1 [Compound 381]	1000 to 3000
COc1ccc(C(=O)CCCCC(=O)N[C@H](CN2CCCC2)[C@H](O)c2ccc(OCCCCF)cc2)cc1 [Compound 435]	≤ 100
O=C(Cc1ccc(OC(F)(F)F)cc1)N[C@H](CN1CCCC1)[C@H](O)c1ccc2c(c1)OC(F)(F)C(F)(F)O2 [Compound 398]	3000 to 10000

Continued, values first:

IC50 [nM]	Structure (SMILES)
100 to 1000	COc1ccc(C(=O)CCCCC(=O)N[C@H](CN2CCCC2)[C@H](O)c2ccc(-c3ccccc3)cc2)cc1 [Compound 694]
3000 to 10000	CCCCCCCC(=O)N[C@H](CN1CCC[C@H]1COC)[C@@H](O)c1ccc2c(c1)OCCO2 [Compound 534]
3000 to 10000	CCCCCCCCCCCCCCCC(=O)N[C@H](CN(C)C1CCCC1)[C@@H](O)c1ccc2c(c1)OCCO2 [Compound 685]
≤ 100	CC(C)Oc1ccc(C(=O)NCCCCCC(=O)N[C@H](CN2CCCC2)[C@H](O)c2ccc3c(c2)OCCO3)cc1 [Compound 690]
3000 to 10000	O=C(N[C@H](CN1CCCC1)[C@H](O)c1ccc2c(c1)OCCO2)C1(C(=O)c2ccc(F)cc2)CC1 [Compound 638]
≤ 100	O=C(CCCCCS(=O)(=O)C1CCCCC1)N[C@H](CN1CC[C@@H](F)C1)[C@H](O)c1ccc(OCc2ccccc2)cc1 [Compound 578]
100 to 1000	O=C(CCCCCCOCC(F)(F)F)N[C@H](CN1CCCC1)[C@H](O)c1ccc2c(c1)OCCO2 [Compound 634]
100 to 1000	O=C(CCCCC1CCOCC1)N[C@H](CN1CCCC1)[C@H](O)c1ccc2c(c1)OCCO2 [Compound 581]
≤ 100	CCCCCCOc1ccc([C@@H](O)[C@@H](CN2CCCC2)NC(=O)CCCOc2ccc(C(C)=O)cc2)cc1 [Compound 727]
1000 to 3000	CCCCOc1ccc([C@@H](O)[C@@H](CN2CC[C@H](O)C2)NC(=O)CCCCCOCCF)cc1 [Compound 661]
100 to 1000	O=C(CCCCc1nc(C2CC2)no1)N[C@H](CN1CCCC1)[C@H](O)c1ccc2c(c1)OCCO2 [Compound 650]
1000 to 3000	COc1ccc(C(=O)CCCCCC(=O)N[C@H](CN2CC(O)C2)[C@H](O)c2ccc3c(c2)OCCO3)cc1 [Compound 600]
≤ 100	CCCCCCOc1ccc([C@@H](O)[C@@H](CN2CC[C@H](O)C2)NC(=O)CCCOc2ccc(OC)cc2)cc1 [Compound 728]
